Among the test systems are DMS 114 small cell lung; LXFL 529 NSCLC; DLD-1 colon; P388 leukemia; P388/ADR leukemia; SN12K1 renal; RXF-631 renal.
Common to all, as to assay: NCI tumour cell line growth inhibition, 48 h

Structures are written as SMILES.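 Grown in 96-well plates, cells were treated for 48 hours with each compound at five concentrations. Insufficient inhibition: endpoint recorded as highest concentration tested. At the TGI there is no net growth.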

As to `Cc1ccc(N=NC(C2=NC(=O)CS2)c2nc3ccccc3[nH]2)cc1` (stereo not drawn), the TGI in the experiment with DMS 114 small cell lung, in the experiment with LXFL 529 NSCLC and in the experiment with DLD-1 colon was > 100 µM throughout.

Consider `CS(=O)(=O)OCCN(CCOS(C)(=O)=O)c1ccc(/C=N/Nc2ncnc3nc[nH]c23)cc1`, for which the values for the TGI in the experiment with DMS 114 small cell lung and in the experiment on DLD-1 colon were 26.2 µM and 74.9 µM, respectively.

As to `Cc1c2cc[n+](C)cc2c(C)c2c1oc1ccccc12`, the TGI is 7.86 µM in the experiment with DMS 114 small cell lung, 15.8 µM in the experiment with LXFL 529 NSCLC and > 59.5 µM with DLD-1 colon.

As to `N=C(N)SCc1cccc([N+](=O)[O-])c1`, the TGI was determined as 90.7 µM in the experiment on DMS 114 small cell lung; 33.6 µM in the experiment with P388 leukemia; 41.2 µM in the experiment with P388/ADR leukemia; 98.6 µM in the experiment on SN12K1 renal; 97.6 µM in the experiment on DLD-1 colon.

As to `O=C(NC(Cc1ccc(I)cc1)C(=O)O)c1ccc(Cl)cc1` (stereo not drawn), the TGI in the experiment on P388 leukemia, in the experiment on P388/ADR leukemia, in the experiment on SN12K1 renal and in the experiment on DLD-1 colon was > 100 µM each time.

Take `COc1cc([N+](=O)[O-])ccc1NC(=O)c1cccc([N+](=O)[O-])c1O`: the TGI with DMS 114 small cell lung, in the experiment on LXFL 529 NSCLC, in the experiment with RXF-631 renal and with DLD-1 colon was > 100 µM in each case.

Consider `O=C1OC2(OC2c2ccc(Cl)cc2)c2ccccc21` (stereo not drawn), for which the TGI was > 100 µM in the experiment with DMS 114 small cell lung, 78.2 µM with LXFL 529 NSCLC and > 100 µM in the experiment with DLD-1 colon.

Regarding `CNC(C)Cc1ccccc1OC` (stereo not drawn), the TGI in the experiment on DMS 114 small cell lung, in the experiment with LXFL 529 NSCLC, in the experiment with RXF-631 renal and with DLD-1 colon was > 100 µM in each case.

Source of the values: PubChem BioAssay (NCI).
